# In US12077503B2, “Substituted cyclic amides and their use as herbicides” (FMC CORPORATION, priority 2015, dated 2024):
# Experiments:
# Assay type in all cases: in vivo
# [1] = system: blackgrass (Alopecurus myosuroides); test: Test A postemergence; conditions: Alopecurus myosuroides, post-emergence, 240 h, postemergence
# In short: (§1)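 Compounds were formulated in a non-phytotoxic solvent mixture with surfactant and applied as a preemergence directed soil spray after seeding, or sprayed postemergence over plants 2 to 10 cm tall at the one- to two-leaf stage. Evaluation after about 10 d compared treated with untreated controls, using a scale from 0 (no effect) to 100 (complete control).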
# [2] = system: ryegrass, Italian (Italian ryegrass, Lolium multiflorum); test: Test A postemergence; conditions: Lolium multiflorum, post-emergence, 240 h, postemergence
# In short: as §1
# [3] = system: wheat (Triticum aestivum); test: Test A postemergence; conditions: Triticum aestivum, post-emergence, 240 h, postemergence
# In short: as §1
# corn (Zea mays) = test: Test A postemergence; conditions: Zea mays, post-emergence, 240 h, postemergence
# In short: as §1
# [4] = system: barnyardgrass (Echinochloa crus-galli); test: Test A postemergence; conditions: Echinochloa crus-galli, post-emergence, 240 h, postemergence
# In short: as §1
# [5] = system: pigweed (Amaranthus retroflexus); test: Test A postemergence; conditions: Amaranthus retroflexus, post-emergence, 240 h, postemergence
# In short: as §1
# [6] = system: Galium (catchweed bedstraw, Galium aparine); test: Test A postemergence; conditions: Galium, post-emergence, 240 h, postemergence
# In short: as §1
# [7] = system: giant foxtail (Setaria faberii); test: Test A postemergence; conditions: Setaria faberi, post-emergence, 240 h, postemergence
# In short: as §1
# [8] = system: ragweed (common ragweed, Ambrosia elatior); test: Test A postemergence; conditions: Ambrosia artemisiifolia, post-emergence, 240 h, postemergence
# In short: as §1
# [9] = system: ryegrass, Italian (Italian ryegrass, Lolium multiflorum); test: Test A preemergence; conditions: Lolium multiflorum, pre-emergence, 240 h, preemergence, 0 to 100 scale where 0 is no effect and 100 is complete control, read-out: Ryegrass, Italian plant response rating
# In short: as §1
# [10] = system: barnyardgrass (Echinochloa crus-galli); test: Test A preemergence; conditions: Echinochloa crus-galli, pre-emergence, 240 h, preemergence, 0 to 100 scale where 0 is no effect and 100 is complete control, read-out: Barnyardgrass plant response rating
# In short: as §1
# [11] = system: pigweed (Amaranthus retroflexus); test: Test A preemergence; conditions: Amaranthus retroflexus, pre-emergence, 240 h, preemergence, 0 to 100 scale where 0 is no effect and 100 is complete control, read-out: Pigweed plant response rating
# [12] = system: giant foxtail (Setaria faberii); test: Test A preemergence; conditions: Setaria faberi, pre-emergence, 240 h, preemergence, 0 to 100 scale where 0 is no effect and 100 is complete control, read-out: Foxtail, Giant plant response rating
# In short: as §1
# [13] = system: ragweed (common ragweed, Ambrosia elatior); test: Test A preemergence; conditions: Ambrosia artemisiifolia, pre-emergence, 240 h, preemergence, 0 to 100 scale where 0 is no effect and 100 is complete control, read-out: Ragweed plant response rating
# In short: as §1
# Kochia (Kochia scoparia) = test: Test A preemergence; conditions: Bassia scoparia, pre-emergence, 240 h, preemergence, 0 to 100 scale where 0 is no effect and 100 is complete control, read-out: Kochia plant response rating
# In short: as §1
structure (smiles),measurement,setting,value
CCc1ccc([C@H]2CNC(=O)[C@@H]2C(=O)Nc2cccc(F)c2C)cc1 [Compound 1177],pest or weed control at 125 g/ha,"[1]; 125 g ai/ha, visual injury vs untreated controls after approx. 10 d, 0 = no effect, 100 = complete control, read-out: Blackgrass plant response rating (0 to 100 scale)",60%
same,pest or weed control at 500 g/ha,"[1]; 500 g ai/ha, 0 to 100 scale, 0 is no effect, 100 is complete control, read-out: Blackgrass plant response rating",70%
same,pest or weed control at 125 g/ha,"[2]; 125 g ai/ha, visual injury vs untreated controls after approx. 10 d, 0 = no effect, 100 = complete control, read-out: Ryegrass, Italian plant response rating (0 to 100 scale)",40%
same,pest or weed control at 500 g/ha,"[2]; 500 g ai/ha, 0 to 100 scale, 0 is no effect, 100 is complete control, read-out: Ryegrass, Italian plant response rating",40%
same,plant injury at 125 g/ha,"[3]; 125 g ai/ha, visual injury vs untreated controls after approx. 10 d, 0 = no effect, 100 = complete control, read-out: Wheat plant response rating (0 to 100 scale)",20%
same,plant injury at 500 g/ha,"[3]; 500 g ai/ha, 0 to 100 scale, 0 is no effect, 100 is complete control, read-out: Wheat plant response rating",30%
same,plant injury at 125 g/ha,"corn (Zea mays); 125 g ai/ha, visual injury vs untreated controls after approx. 10 d, 0 = no effect, 100 = complete control, read-out: Corn plant response rating (0 to 100 scale)",20%
same,plant injury at 500 g/ha,"corn (Zea mays); 500 g ai/ha, 0 to 100 scale, 0 is no effect, 100 is complete control, read-out: Corn plant response rating",40%
same,pest or weed control at 125 g/ha,"[4]; 125 g ai/ha, visual injury vs untreated controls after approx. 10 d, 0 = no effect, 100 = complete control, read-out: Barnyardgrass plant response rating (0 to 100 scale)",70%
same,pest or weed control at 500 g/ha,"[4]; 500 g ai/ha, 0 to 100 scale, 0 is no effect, 100 is complete control, read-out: Barnyardgrass plant response rating",90%
same,pest or weed control at 125 g/ha,"[5]; 125 g ai/ha, visual injury vs untreated controls after approx. 10 d, 0 = no effect, 100 = complete control, read-out: Pigweed plant response rating (0 to 100 scale)",0%
same,pest or weed control at 500 g/ha,"[5]; 500 g ai/ha, 0 to 100 scale, 0 is no effect, 100 is complete control, read-out: Pigweed plant response rating",0%
same,pest or weed control at 125 g/ha,"[6]; 125 g ai/ha, visual injury vs untreated controls after approx. 10 d, 0 = no effect, 100 = complete control, read-out: Galium plant response rating (0 to 100 scale)",20%
same,pest or weed control at 500 g/ha,"[6]; 500 g ai/ha, 0 to 100 scale, 0 is no effect, 100 is complete control, read-out: Galium plant response rating",50%
same,pest or weed control at 125 g/ha,"[7]; 125 g ai/ha, visual injury vs untreated controls after approx. 10 d, 0 = no effect, 100 = complete control, read-out: Foxtail, Giant plant response rating (0 to 100 scale)",50%
same,pest or weed control at 500 g/ha,"[7]; 500 g ai/ha, 0 to 100 scale, 0 is no effect, 100 is complete control, read-out: Foxtail, Giant plant response rating",70%
same,pest or weed control at 125 g/ha,"[8]; 125 g ai/ha, visual injury vs untreated controls after approx. 10 d, 0 = no effect, 100 = complete control, read-out: Ragweed plant response rating (0 to 100 scale)",0%
same,pest or weed control at 500 g/ha,"[8]; 500 g ai/ha, 0 to 100 scale, 0 is no effect, 100 is complete control, read-out: Ragweed plant response rating",0%
same,pest or weed control at 125 g/ha,"[9]; 125 g ai/ha, approx. 10 d",30%
same,pest or weed control at 500 g/ha,[9]; 500 g ai/ha,70%
same,pest or weed control at 125 g/ha,"[10]; 125 g ai/ha, approx. 10 d",70%
same,pest or weed control at 500 g/ha,[10]; 500 g ai/ha,100%
same,pest or weed control at 125 g/ha,"[11]; 125 g ai/ha, approx. 10 d",0%
same,pest or weed control at 500 g/ha,[11]; 500 g ai/ha,20%
same,pest or weed control at 125 g/ha,"[12]; 125 g ai/ha, approx. 10 d",70%
same,pest or weed control at 500 g/ha,[12]; 500 g ai/ha,100%
same,pest or weed control at 125 g/ha,"[13]; 125 g ai/ha, approx. 10 d",0%
same,pest or weed control at 500 g/ha,[13]; 500 g ai/ha,30%
same,pest or weed control at 125 g/ha,"Kochia (Kochia scoparia); 125 g ai/ha, approx. 10 d",30%
same,pest or weed control at 500 g/ha,Kochia (Kochia scoparia); 500 g ai/ha,30%
